Experimental data reported in paper PMC12048343, “Discovery of a small molecule secreted clusterin enhancer that improves memory in Alzheimer’s disease mice” (npj Drug Discovery, 2025).
Values after ≈ are worked out from the molar mass of the structure shown. “Also recorded” adds a separate entry of the source. Like-named read-outs stand apart in the source and are kept apart here.

Key:
[1] = tested on: sCLU secreted from human U-87 MG glioblastoma cells; test: Human sCLU AlphaLISA on supernatant of U-87 MG cells (HTS, re-test, dose response); assay type: cell-based; conditions: for sCLU levels relative to DMSO control: 5 µM
Method: Cell culture supernatant (2 μL) was added to a 384-well proxy plate preloaded with AlphaLISA HiBlock buffer (2 µL, 1X, CAT#AL004C, Perkin Elmer). Then an anti-sCLU antibody mixture (2 µL, mAb J84, biotinylated (10 nM, Cat# 3717-6-1000, Mabtech) and mAb CLU aa 22-227 (Cat#AF7084, R&D Systems), Acceptor bead conjugated (50 µg/mL, Cat#6772001, Perkin Elmer)) was added and incubated at room temperature for 1 hour. AlphaScreen Streptavidin Donor beads (2 µL, Cat#6760002S, Perkin Elmer) were added, incubated for an additional 30 min in the dark, and the plate was read in an Envision plate reader.
Human glioblastoma U-87 MG cells were proliferated in EMEM with 10% FBS and 1% P/S (complete medium) in 10 cm dishes until approximately 90% confluent. Following trypsinization, a suspension of 2 × 10^5 cells/mL (25 µL) were added to 384-well plates containing complete medium (25 µL) and library compounds from 9 plates (5 µM). After incubation for 30 h at 37 °C and 5% CO2, 2 μL of cell culture supernatant were analyzed via human sCLU AlphaLISA as described above. Cell culture medium and cells were added to the 384-well plates using the MultiDrop. The BioMek FX was used to pin the drugs and transfer the cell culture supernatant. The MANTIS liquid handler was used to added human sCLU AlphaLISA reagents.
Human glioblastoma U-87 MG cells were proliferated in EMEM with 10% FBS and 1% P/S (complete medium) in 10 cm dishes until approximately 90% confluent. […] After incubation for 30 hours at 37 °C and 5% CO2, 2 μL of cell culture supernatant were analyzed via human sCLU AlphaLISA as described above.

[2] = biological target: BRD2 (Homo sapiens, UniProt P25440); test: BRD2 inhibition assay; assay type: biochemical
[3] = biological target: BRD4 (Homo sapiens, UniProt O60885); test: BRD4 inhibition assay; assay type: biochemical
[4] = Kinetic solubility; assay type: physicochemical; conditions: aqueous buffer, kinetic from dmso stock, PBS pH 7.4, 37 °C, 100 µM nominal
Method: Test compound (10 mM, 100% DMSO) was diluted separately into aqueous buffer (100 µM; PBS pH 7.4) and DMSO at various concentrations (1000, 100, 10, 1, 0.1 µM). The solutions were then incubated at 37 °C for 90 min and centrifuged (16000xg, 5 min). An aliquot of each supernatant was analyzed by UV/Vis (if possible) or LC-MS/MS. A standard curve was made by plotting the known amount of analyte per standard in DMSO vs. absorbance or chromatographic peak area. Kinetic solubility (mM) was calculated using the trendline equation with maximum absorbance or chromatographic peak area observed in the aqueous sample.

[5] = Liver microsome stability assay; assay type: in vitro ADME; conditions: pH 7.4; human liver microsomes 0.5 mg/mL, NADPH, 37 °C, up to 120 min; read-out: Microsomal Stability t1/2
Method: An aliquot (1 µL) of test compound (1 mM, 100% DMSO) was added to an aqueous liver microsome solution (1000 µL, PBS pH 7.4, 0.5 mg/mL human liver microsomes (Thermo Fisher Scientific, Cat#HMMPL), 2 mM NADPH, 2 mM MgCl2) and incubated at 37 °C for 120 min. Aliquots (50 µL) of the microsome solution were taken at various time points (0, 5, 10, 15, 30, 60, 90, 120 min) and added to a reaction quenching solution (200 µL 100% Acetonitrile) containing an internal standard. Solutions were clarified by centrifugation (16,000 x g, 5 min), and the supernatants were transferred to new tubes and lyophilized. Samples were reconstituted in 100 µL of 50/50/0.1 (Water/Acetonitrile/Formic Acid) prior to analysis via liquid chromatography-tandem mass spectrometry (LC-MS/MS). Chromatographic peak areas normalized to the internal standard were plotted at each time point and the half-life (t1/2) of compound in liver microsomes was determined by using the trendline equation to calculate the time at which compound abundance was 50% of that at time point 0 (t0).

[6] = Plasma binding assay (dialysis); assay type: in vitro ADME; conditions: dialysis 4.5 hours, 37 °C
Method: (§1) Brain tissue was homogenized in PBS (pH 7.4) (1: 3 weight(mg)/volume(µL)) and the protein concentration was determined using the Micro BCA™ Protein Assay Kit (Thermo Fisher Scientific, Cat#23235). Brain homogenate was clarified and diluted to 20 mg/mL in PBS (pH 7.4). Either brain homogenate or plasma was and added to Slide-A-Lyzer™ MINI Dialysis Devices, 10 K MWCO dialysis cups (Thermo Fisher Scientific, Cat#PI88401) in a 48-well plate containing PBS (500 µL; pH 7.4). 1 µL of 1 mM compound was added to the brain homogenate (Final Concentration: 2 µM compound, 0.5% DMSO) and incubated on a rocker for 4.5 hours at 37 °C. 50 µL of brain homogenate or plasma (within the dialysis cup) and PBS (within the 48-well plate) were transferred to new microcentrifuge tubes containing 400 µL of quenching reagent (100% Acetonitrile) containing internal standard. Solutions were clarified by centrifugation (16,000 x g, 5 min), and the supernatants were transferred to new tubes and lyophilized. Samples were reconstituted in 100 µL of 50/50/0.1 (Water/Acetonitrile/Formic Acid) prior to analysis via liquid chromatography-tandem mass spectrometry (LC-MS/MS). The % of the unbound drug (fu,bound) was calculated using the following equation:
(§2) % Bound = [1− (PBS chromatographic peak area/ brain homogenate or plasma chromatographic peak area)] x 100

[7] = Brain tissue binding assay (dialysis); assay type: in vitro ADME; conditions: brain homogenate 20 mg/mL, 2 µM compound, dialysis 4.5 hours, 37 °C
Method: as §1, §2

[8] = Blood-Brain Barrier (BBB) permeability assay (IAM column, Pm); assay type: in vitro ADME; conditions: pH 7.4; Pm > 1.0 = CNS+
Method: A liquid chromatography-ultraviolet/visible spectroscopy (LC-UV/Vis) assay was performed on a 1290 Infinity HPLC system (Agilent Technologies) with an HPLC column containing immobilized phosphatidylcholine (IAM.PC.DD, Regis Technologies, Cat#774011, 5 µm 300 Å 100 ×4.6 mm). The HPLC method was a mixture of 6.7 mM phosphate buffer saline (pH 7.4; solvent A) and acetonitrile (solvent B), and a gradient was used for the elution of the compounds (min/%B: 0/20, 20/60, 21/20, 30/20). The retention time of the compound (tr) and void volume time of the column (t0) were recorded. Blood-brain barrier (BBB) permeability (Pm) was calculated using the following equations as described by Yoon et al. (10.1177/1087057105281656):
KIAM = (tr − t0) / t0; Pm = (KIAM / MW^4) x 10^10
Compounds with a Pm > 1.0 were determined to be BBB permeable (CNS + ) at pH 7.

[9] = tested on: nCLU levels in U-87 MG cells; test: nCLU levels in U-87 MG cells; assay type: cell-based, human; conditions: 5 µM
[10] = selective HDAC / BET inhibitors, dose response (Fig. S1), read-out: sCLU EC50
[11] = Homo sapiens, U-87 MG cells, 30 h, AlphaLISA of supernatant, read-out: EC50 for sCLU increase

BRD2, sequence (P25440 whole entry): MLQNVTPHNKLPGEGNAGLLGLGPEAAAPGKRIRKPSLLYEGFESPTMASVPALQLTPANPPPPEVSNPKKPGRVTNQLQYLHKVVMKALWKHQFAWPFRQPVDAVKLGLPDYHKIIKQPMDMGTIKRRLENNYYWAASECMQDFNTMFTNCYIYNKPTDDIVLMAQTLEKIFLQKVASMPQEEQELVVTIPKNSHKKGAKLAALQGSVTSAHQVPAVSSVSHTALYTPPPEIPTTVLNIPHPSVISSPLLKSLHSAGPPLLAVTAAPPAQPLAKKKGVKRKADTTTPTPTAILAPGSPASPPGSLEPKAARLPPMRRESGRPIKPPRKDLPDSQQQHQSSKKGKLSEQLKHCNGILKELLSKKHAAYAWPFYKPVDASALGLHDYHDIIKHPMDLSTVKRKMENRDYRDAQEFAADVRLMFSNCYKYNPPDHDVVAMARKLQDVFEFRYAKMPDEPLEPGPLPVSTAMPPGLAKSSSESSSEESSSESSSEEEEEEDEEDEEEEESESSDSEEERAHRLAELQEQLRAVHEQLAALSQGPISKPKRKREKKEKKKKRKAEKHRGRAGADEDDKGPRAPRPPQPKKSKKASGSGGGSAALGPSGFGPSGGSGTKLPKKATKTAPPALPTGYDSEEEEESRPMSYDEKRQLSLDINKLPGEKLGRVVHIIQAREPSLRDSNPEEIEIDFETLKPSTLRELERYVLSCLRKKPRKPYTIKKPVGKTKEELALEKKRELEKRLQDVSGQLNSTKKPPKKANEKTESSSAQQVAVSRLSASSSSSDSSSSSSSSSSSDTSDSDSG

| Compound | EC50 [1, 11] [nM] | solubility kinetic at 90 min [4] [µM] | half-life at 1 µM [5] [min] | Plasma Binding [6] [% bound] | Brain Tissue Binding [7] [% bound] | PAMPA Pm [8] | IC50 ([2]; read-out: BRD2 IC50) [nM] | IC50 ([3]; read-out: BRD4 IC50) [nM] | further results |
| --- | --- | --- | --- | --- | --- | --- | --- | --- | --- |
| CCNC(=O)c1cc2c(-c3cc(C(C)(C)O)ccc3Oc3c(C)cc(F)cc3C)cn(C)c(=O)c2[nH]1 [ABBV-774] | – | – | – | – | – | – | – | – | potency as sCLU enhancer, comparison in words ([1]; U-87 MG cells, dose response): less potent sCLU enhancers than pan-BET inhibitors; EC50 [1, 10]: 1100 nM |
| CCCc1nn(C)c2c(=O)[nH]c(-c3cc(Cc4ccc(C(=O)Nc5ccccc5N)cc4)ccc3OCC)nc12 [CM-675] | – | – | – | – | – | – | – | – | EC50 [1, 10]: 6000 nM |
| Cc1sc2c(c1C)C(c1ccc(Cl)cc1)=N[C@@H](CC(=O)OC1CCCC1)c1nnc(C)n1-2 [DDL-351] | 117 | 57.5 (≈ 27 µg/mL) | 3 | 99 | 94 | 1.35 | – | – | IC50 [2]: 175 nM; IC50 [3]: 27 nM |
| Cc1sc2c(c1C)C(c1ccc(Cl)cc1)=N[C@@H](CC(=O)N1CCCC1)c1nnc(C)n1-2 [DDL-352] | 1440 | > 100 | 62 | 96 | 64 | 0.98 | 644 | 105 | – |
| Cc1sc2c(c1C)C(c1ccc(Cl)cc1)=N[C@@H](CC(=O)NC1CCCC1)c1nnc(C)n1-2 [DDL-353] | 977 | > 100 | 8 | 93 | 79 | 1.08 | 385 | 63 | – |
| Cc1sc2c(c1C)C(c1ccc(Cl)cc1)=N[C@@H](CC(=O)NCC(=O)OC(C)C)c1nnc(C)n1-2 [DDL-354] | 676 | 91.1 (≈ 45.6 µg/mL) | 12 | 91 | 67 | 0.76 | 382 | 48 | – |
| Cc1sc2c(c1C)C(c1ccc(Cl)cc1)=N[C@@H](CC(=O)OC1CCC1)c1nnc(C)n1-2 [DDL-355] | 99 | 63.7 (≈ 29 µg/mL) | 27 | 86 | 88 | 1.42 | – | – | IC50 [2]: 163 nM; IC50 [3]: 19 nM |
| CCCCOC(=O)C[C@@H]1N=C(c2ccc(Cl)cc2)c2c(sc(C)c2C)-n2c(C)nnc21 [DDL-358] | 446 | 59.3 (≈ 27.1 µg/mL) | 14 | 98 | 93 | 1.42 | – | – | IC50 [2]: 207 nM; IC50 [3]: 28 nM |
| Cc1sc2c(c1C)C(c1ccc(Cl)cc1)=NC(CC(=O)NC(C)C(=O)OC(C)C)c1nnc(C)n1-2 (stereo not drawn) [DDL-359] | 2340 | > 100 | 13 | 94 | 44 | 0.71 | 130 | 353 | – |
| Cc1sc2c(c1C)C(c1ccc(Cl)cc1)=N[C@@H](CC(=O)NO)c1nnc(C)n1-2 [DDL-360] | 631 | > 100 | > 120 | 88 | 59 | 1.09 | 395 | 70 | – |
| COc1cc2c(cc1-c1c(C)noc1C)ncc1[nH]c(=O)n(C(C)c3ccccn3)c12 (stereo not drawn) [I-BET151] | – | – | – | – | – | – | – | – | EC50 ([1]; Homo sapiens, U-87 MG cells, dose response, text and figures, read-out: sCLU EC50): 617 nM; sCLU levels relative to DMSO control ([1]; U-87 MG cells): increased sCLU; also recorded: significantly increase sCLU levels; nCLU levels [9]: not affecting nCLU levels |
| O=C(NO)c1ccc(CNc2cccc3cccnc23)cc1 [MPT0G211] | – | – | – | – | – | – | – | – | EC50 [1, 10]: 10000 nM |
| Cc1cc(/N=N/c2ccc(S(=O)(=O)Nc3ccccn3)cc2)c(N)cc1O [MS436] | – | – | – | – | – | – | – | – | potency as sCLU enhancer, comparison in words ([1]; U-87 MG cells, dose response): less potent sCLU enhancers than pan-BET inhibitors |
| Nc1cc(F)ccc1NC(=O)/C=C/c1cnn(C/C=C/c2ccccc2)c1 [RGFP966] | – | – | – | – | – | – | – | – | EC50 ([1]; Homo sapiens, U-87 MG, selective HDAC / BET inhibitors, dose response 2-5000 nM (Fig. S1), read-out: sCLU EC50): 10100 nM |
| COc1cc(/C=C/C(=O)N2CCC=CC2=O)cc(OC)c1OC [piperlongumine] | – | – | – | – | – | – | – | – | sCLU levels relative to DMSO control ([1]; U-87 MG cells): significantly increase sCLU levels |
| O=C(CCCCCCC(=O)Nc1ccccc1)NO [vorinostat] | – | – | – | – | – | – | – | – | nCLU levels [9]: not affecting nCLU levels |
